Data published in patent US20170232115A1 (priority 2011, published 2017).
No end group written: not given here.

Tests used:
[1] = In vitro transdermal permeation, modified Franz diffusion cells, HPLC; format: in vitro ADME, human
Method: Finally, a number of these cosolvent formulations were evaluated for their in vitro transdermal permeation properties (FIG. 3X2). Note that these cosolvents are also known to function as permeability enhancers in some formulations (10-1 1). For this series of experiments, human skin obtained from abdominoplastic surgery was mounted on modified Franz diffusion cells and drug permeation was determined as a function of time using high performance liquid chromatography.
The Franz diffusion cell is an essential tool in the field of transdermal drug delivery. Patient-derived skin is placed between the cell cap and the solution chamber. The cell cap is exposed to the environment allowing the stratum corneum to also be exposed to the environment. The solution chamber is filled with an isotonic diffusion buffer. Additionally the solution chamber has an injection port that allows for difhsion buffer to be removed without disturbing the setup. Finally, the solution chamber is surrounded by a water jacket that allows for temperature control. The Franz diffusion cell allows for in vitro studies of transdennal delivery to be carried out using physiological conditions. Note that penetration of any solute through the patient-derived skin into the difhsion buffer is equivalent to that solute reaching systemic circulation in an in vivo system. […] Determination of silica content in different layers of the skin will be determined using enzymatic tissue digestion, and inductively coupled plasma mass spectroscopy (ICP mass spec). Both the SLB and nanoporous particle core can be fluorescently tagged to allow for confocal microscopy. In addition, the skin samples can be microtomed after treatment and incubation with protocells so that they can be imaged using TEM.

[2] = cited from earlier work
[3] = target: hepatocyte growth factor receptor (c-Met) (Homo sapiens, UniProt P08581); details: peptide identified by phage display
Sequence of hepatocyte growth factor receptor (c-Met) (P08581 25-932): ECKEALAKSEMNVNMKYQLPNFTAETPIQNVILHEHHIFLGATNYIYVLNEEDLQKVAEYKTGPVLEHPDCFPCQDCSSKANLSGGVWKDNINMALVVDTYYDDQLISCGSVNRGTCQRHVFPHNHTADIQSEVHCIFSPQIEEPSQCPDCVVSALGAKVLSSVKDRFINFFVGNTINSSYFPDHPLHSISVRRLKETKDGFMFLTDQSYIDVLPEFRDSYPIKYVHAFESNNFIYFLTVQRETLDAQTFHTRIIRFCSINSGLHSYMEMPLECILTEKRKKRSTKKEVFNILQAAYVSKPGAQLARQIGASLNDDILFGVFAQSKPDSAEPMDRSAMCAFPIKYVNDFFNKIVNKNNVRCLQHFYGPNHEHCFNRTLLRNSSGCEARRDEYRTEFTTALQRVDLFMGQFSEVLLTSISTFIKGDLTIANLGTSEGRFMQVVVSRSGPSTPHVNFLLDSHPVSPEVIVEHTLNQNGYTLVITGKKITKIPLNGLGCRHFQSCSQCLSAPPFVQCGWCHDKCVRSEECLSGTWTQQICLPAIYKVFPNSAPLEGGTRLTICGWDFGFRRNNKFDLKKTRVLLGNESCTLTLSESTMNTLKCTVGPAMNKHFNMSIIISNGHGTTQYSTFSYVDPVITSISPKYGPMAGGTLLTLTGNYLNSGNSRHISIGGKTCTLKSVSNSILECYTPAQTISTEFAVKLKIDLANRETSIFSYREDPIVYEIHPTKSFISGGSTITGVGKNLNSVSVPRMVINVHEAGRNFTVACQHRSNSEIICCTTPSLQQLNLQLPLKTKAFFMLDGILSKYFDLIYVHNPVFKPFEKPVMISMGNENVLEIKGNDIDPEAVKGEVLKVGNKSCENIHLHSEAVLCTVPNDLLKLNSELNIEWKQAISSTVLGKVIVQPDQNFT

Compound: Cc1ccc(NC(=O)c2ccc(CN3CCN(C)CC3)cc2)cc1Nc1nccc(-c2cccnc2)n1 [Imatinib]
- permeability through the skin ([1]; DMSO): highest permeability
- flux (rate of permeation through the skin) ([1]; DMSO formulation): 0.225 μg/cm2hr
- permeation through the skin ([1]; water (pH 7) as solvent system, 24 hours): no imatinib permeated through the skin

Compound: CN1CCCC1c1cccnc1 (stereo not drawn) [Nicotine]
- solubility in H2O [2]: miscible in H2O

Compound: CC(C)Cc1ccc(C(C)C(=O)O)cc1 (stereo not drawn) [ibuprofen]
- solubility in H2O [2]: insoluble in H2O

Compound: ASVHFPP [MC40]
- affinity for hepatocyte growth factor receptor (c-Met) [3]: nanomolar affinity
